Assay results: ChEMBL document CHEMBL1201862, “PubChem BioAssay data set” (2004)
Active and inactive are the calls of the source.

Columns and labels:
[1] = Dd2 malaria parasite growth inhibition potency – SYBR Green, dry powder samples, dose response (AID 1159566); type: functional, cell-based;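 also: potency for growth inhibition with lower SYBR green DNA signal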
[2] = P. falciparum Dd2 growth inhibitors, dose response, SYBR Green, cherry-picked samples (AID 1159567); type: functional, cell-based
[3] = growth inhibition of yeast DHODH-expressing 3D7 parasites – SYBR Green, dry powder samples, dose response (AID 1159570); type: functional, cell-based;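 also: parasite growth measured after 72 hours of compound exposure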
[4] = growth inhibition of PfATP4-mutant resistant parasites – NITD609-resistant line, SYBR Green, dry powder, dose response (AID 1159571); type: functional, cell-based;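 also: parasites synchronized at ring stage by sorbitol before testing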
[5] = NIH3T3 cell viability loss – ATP luminescence, mouse fibroblasts, counter-screen, dose response (AID 2010); type: functional, cell-based;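 also: cells exposed to compound for about 90 hours before reading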
[6] = Trypanosoma cruzi growth suppression in host cells – NIH3T3 host cells, beta-gal luminescence, confirmation (AID 2044); type: functional, cell-based;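 also: intracellular parasites grown in NIH/3T3 mouse fibroblasts as host cells; luminescent beta-galactosidase reporter signal from transgenic T. cruzi replicating inside host cells; inhibitors lower the luminescence signal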
Prothrombin = Prothrombin (Homo sapiens, UniProt P00734); assay: Thrombin 1536 HTS Dose Response Confirmation. [Related pubchem assays: 1046 (Thrombin 1536 HTS; hits were confirmed in this assay)]; type: functional
[7] = blockade of melanocortin 4 receptor signaling – cell-based, plate reader, cherry pick, counter-screen for LGR2 antagonist project, dose response (AID 743444); type: functional;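 also: transfected HEK 293 cells stimulated with alpha-MSH peptide; potency of inhibitors of the alpha-MSH evoked signal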
[8] = blockers of bursicon-stimulated LGR2 cAMP reporter – cell-based, HEK293, CRE-luciferase reporter, cherry pick, set 2, dose response (AID 743343); type: functional;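 also: transfected cells were stimulated with diluted bursicon conditioned medium after compound addition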
[9] = viability loss in HEK293 cells – cell-based, plate reader, cherry-picked samples, cytotoxicity control, dose response (AID 743446); type: functional
[10] = A549 cell cytotoxicity, dose response, cytotoxicity control, plate reader, cherry-pick, antagonist series (AID 743412); type: functional, cell-based
Protein skinhead-1 = target: T1, Protein skinhead-1 (Caenorhabditis elegans, UniProt P34707); type: functional
T1 sequence (P34707 whole entry): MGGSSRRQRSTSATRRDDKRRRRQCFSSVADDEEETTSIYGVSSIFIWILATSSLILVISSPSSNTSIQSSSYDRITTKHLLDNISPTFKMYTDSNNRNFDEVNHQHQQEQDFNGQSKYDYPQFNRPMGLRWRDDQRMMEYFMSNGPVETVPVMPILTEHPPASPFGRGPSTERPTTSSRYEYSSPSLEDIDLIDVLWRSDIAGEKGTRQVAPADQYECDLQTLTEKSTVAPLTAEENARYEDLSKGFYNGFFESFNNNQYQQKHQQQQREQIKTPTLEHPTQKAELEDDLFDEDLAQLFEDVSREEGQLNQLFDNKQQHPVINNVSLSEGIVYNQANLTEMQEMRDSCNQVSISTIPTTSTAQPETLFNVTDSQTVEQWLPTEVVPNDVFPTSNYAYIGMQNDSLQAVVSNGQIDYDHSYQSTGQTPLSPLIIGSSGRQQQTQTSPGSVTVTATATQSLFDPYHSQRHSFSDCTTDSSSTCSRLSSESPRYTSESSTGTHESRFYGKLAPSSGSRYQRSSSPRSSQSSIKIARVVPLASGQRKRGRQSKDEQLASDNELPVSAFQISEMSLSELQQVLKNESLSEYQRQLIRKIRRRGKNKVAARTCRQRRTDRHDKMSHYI

[11] = target: T2, Methionyl-tRNA synthetase, putative (Trypanosoma brucei brucei, UniProt Q38C91); type: functional, Trypanosoma brucei brucei strain 927/4 GUTat10.1
T2 sequence (Q38C91 whole entry): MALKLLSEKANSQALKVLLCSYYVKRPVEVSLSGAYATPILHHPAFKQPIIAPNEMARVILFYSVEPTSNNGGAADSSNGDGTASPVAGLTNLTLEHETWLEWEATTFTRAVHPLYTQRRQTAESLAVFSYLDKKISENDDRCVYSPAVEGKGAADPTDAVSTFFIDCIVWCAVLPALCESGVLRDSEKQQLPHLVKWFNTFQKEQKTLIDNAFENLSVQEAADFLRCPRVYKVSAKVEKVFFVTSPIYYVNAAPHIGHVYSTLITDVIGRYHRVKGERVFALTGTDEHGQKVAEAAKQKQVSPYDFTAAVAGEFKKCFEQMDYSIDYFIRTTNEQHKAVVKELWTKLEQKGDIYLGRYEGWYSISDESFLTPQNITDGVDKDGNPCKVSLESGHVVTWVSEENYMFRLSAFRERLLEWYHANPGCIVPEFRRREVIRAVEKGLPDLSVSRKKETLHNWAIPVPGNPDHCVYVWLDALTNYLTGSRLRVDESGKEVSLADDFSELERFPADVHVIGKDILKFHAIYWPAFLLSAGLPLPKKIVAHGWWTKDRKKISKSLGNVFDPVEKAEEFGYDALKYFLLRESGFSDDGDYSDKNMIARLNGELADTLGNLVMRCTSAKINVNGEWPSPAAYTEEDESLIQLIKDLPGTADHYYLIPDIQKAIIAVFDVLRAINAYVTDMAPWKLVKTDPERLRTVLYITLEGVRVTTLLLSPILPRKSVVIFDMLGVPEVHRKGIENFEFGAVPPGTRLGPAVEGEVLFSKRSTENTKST

[12] = target: T2, Methionyl-tRNA synthetase, putative; type: functional, Trypanosoma brucei brucei strain 927/4 GUTat10.1; remark: listed apart in the source
[13] = Counterscreen for inhibitors of Trypanosoma brucei methionyl tRNA synthetase (MetRS): Luminescence-based cell-based high throughput dose response assay to identify compounds that are cytotoxic to Jurkat human T lymphocyte cells.; type: functional
Beta-galactosidase = Beta-galactosidase (Escherichia coli, UniProt Q8VNN2); assay: Dose response counterscreen for EBI2 assay utilizing the enzyme, b-galactosidase.; type: functional
[14] = HIV-1 Vif–A3G interaction blockers – biochemical, TR-FRET, GST-Vif 1-94, biotin-A3G peptide, dose response retest, primary screen (AID 1117319); type: functional;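 also: TR-FRET signal of purified GST-Vif binding a biotinylated A3G peptide; inhibitors lower the FRET signal by blocking Vif and A3G binding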
Paired box protein Pax-8 = Paired box protein Pax-8 (Homo sapiens, UniProt Q06710); assay: PAX8 transcriptional activity inhibition in RMG-I – RMG-I cells, luciferase, cherry-pick, dose response (AID 687027); type: functional, cell-based;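 also: luciferase reporter driven by Pax8 target thyroperoxidase promoter measured by SteadyGlo luminescence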
[15] = OVCAR-3 cell viability loss – plate reader, dry powder samples, PAX8 inhibitor project, dose response (AID 743044); type: functional, cell-based
[16] = OVCAR8 cell viability loss – plate reader, dry powder samples, PAX8 project, dose response (AID 743197); type: functional, cell-based; conditions: OVCAR-8
[17] = target: T3, Carboxy-terminal domain RNA polymerase II polypeptide A small phosphatase 1 (Homo sapiens, UniProt Q9GZU7); assay: CTDSP1 inhibitors, concentration-response, biochemical, absorbance readout, ultra-high-throughput screen actives (AID 540297); type: functional
T3 sequence (Q9GZU7 whole entry): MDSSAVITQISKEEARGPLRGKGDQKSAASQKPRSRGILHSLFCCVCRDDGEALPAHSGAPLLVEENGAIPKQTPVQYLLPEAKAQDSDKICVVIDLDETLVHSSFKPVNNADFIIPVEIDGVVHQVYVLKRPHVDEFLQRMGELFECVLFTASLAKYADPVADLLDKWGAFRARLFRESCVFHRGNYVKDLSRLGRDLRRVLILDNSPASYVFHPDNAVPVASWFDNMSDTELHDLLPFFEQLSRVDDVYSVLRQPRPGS

Estrogen receptor beta [18] = target: T4, Estrogen receptor beta (Homo sapiens, UniProt Q92731); assay: blockers of SRC-3 recruitment to ERβ – biochemical, ELISA, streptavidin-HRP readout, orthogonal assay, confirmation (AID 1060)
Estrogen receptor beta [19] = target: T4, Estrogen receptor beta
[20] = target: T5, Heat shock factor protein 1 (Mus musculus, UniProt P38532); assay: enhancement of HSF1-driven luciferase signal – cell-based, NIH3T3, luminescence, dose retest, confirmation (AID 435004); type: functional;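 also: stress induced by proteasome inhibitor MG132 added 30 min after compound; luciferase reporter driven by HSF1 response element in NIH3T3 cells; actives raise luminescence as potentiators of the MG132 stress response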
T5 sequence (P38532 whole entry): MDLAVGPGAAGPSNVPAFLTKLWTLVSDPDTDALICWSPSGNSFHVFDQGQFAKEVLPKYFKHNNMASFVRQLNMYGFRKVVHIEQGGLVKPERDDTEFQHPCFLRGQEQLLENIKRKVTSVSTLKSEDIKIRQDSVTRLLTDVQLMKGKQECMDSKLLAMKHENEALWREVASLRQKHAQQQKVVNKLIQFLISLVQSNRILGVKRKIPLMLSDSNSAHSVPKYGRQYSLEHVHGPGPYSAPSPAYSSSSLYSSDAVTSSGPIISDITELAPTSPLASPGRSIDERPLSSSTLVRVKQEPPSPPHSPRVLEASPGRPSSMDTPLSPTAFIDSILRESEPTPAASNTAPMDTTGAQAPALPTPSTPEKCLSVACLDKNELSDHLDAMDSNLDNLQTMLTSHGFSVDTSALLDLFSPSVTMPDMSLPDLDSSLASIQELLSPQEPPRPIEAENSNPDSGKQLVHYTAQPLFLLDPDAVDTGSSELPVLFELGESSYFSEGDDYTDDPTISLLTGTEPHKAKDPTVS

Estrogen receptor = target: T6, Estrogen receptor (Homo sapiens, UniProt P03372);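 also: potency for inhibiting coactivator peptide recruitment to the receptor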
T6 sequence (P03372 whole entry): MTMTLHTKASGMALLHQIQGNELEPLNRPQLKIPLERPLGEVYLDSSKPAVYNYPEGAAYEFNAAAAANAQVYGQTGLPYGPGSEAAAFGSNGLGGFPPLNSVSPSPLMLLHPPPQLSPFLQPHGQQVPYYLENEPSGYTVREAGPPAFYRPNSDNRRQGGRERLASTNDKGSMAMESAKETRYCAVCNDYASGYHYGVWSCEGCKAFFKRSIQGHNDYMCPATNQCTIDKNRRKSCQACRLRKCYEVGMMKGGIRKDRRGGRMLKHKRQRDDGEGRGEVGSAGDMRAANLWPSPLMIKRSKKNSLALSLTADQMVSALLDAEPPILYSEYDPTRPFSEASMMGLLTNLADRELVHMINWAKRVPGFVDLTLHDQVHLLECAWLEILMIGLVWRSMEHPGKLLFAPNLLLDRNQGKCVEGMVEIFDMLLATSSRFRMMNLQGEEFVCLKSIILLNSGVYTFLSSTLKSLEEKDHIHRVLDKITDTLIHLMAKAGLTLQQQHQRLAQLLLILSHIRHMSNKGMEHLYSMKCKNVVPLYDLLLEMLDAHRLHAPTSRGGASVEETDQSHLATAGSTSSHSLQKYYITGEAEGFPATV

T4 sequence (Q92731 whole entry): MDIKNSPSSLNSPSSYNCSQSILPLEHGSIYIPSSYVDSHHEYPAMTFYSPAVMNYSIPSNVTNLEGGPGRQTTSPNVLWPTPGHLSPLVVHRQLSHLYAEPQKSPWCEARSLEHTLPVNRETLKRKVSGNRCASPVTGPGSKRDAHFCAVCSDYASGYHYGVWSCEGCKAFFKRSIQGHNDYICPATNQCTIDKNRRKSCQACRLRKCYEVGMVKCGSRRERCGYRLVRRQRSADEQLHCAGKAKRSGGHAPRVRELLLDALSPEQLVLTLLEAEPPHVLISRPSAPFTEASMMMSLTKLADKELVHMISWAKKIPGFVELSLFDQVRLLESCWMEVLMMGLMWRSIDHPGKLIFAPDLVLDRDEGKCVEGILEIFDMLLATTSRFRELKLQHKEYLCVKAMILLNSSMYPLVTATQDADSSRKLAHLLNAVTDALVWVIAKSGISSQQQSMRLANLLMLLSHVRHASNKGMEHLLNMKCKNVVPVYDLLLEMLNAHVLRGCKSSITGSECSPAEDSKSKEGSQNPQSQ
Chain of Beta-galactosidase (Q8VNN2 whole entry): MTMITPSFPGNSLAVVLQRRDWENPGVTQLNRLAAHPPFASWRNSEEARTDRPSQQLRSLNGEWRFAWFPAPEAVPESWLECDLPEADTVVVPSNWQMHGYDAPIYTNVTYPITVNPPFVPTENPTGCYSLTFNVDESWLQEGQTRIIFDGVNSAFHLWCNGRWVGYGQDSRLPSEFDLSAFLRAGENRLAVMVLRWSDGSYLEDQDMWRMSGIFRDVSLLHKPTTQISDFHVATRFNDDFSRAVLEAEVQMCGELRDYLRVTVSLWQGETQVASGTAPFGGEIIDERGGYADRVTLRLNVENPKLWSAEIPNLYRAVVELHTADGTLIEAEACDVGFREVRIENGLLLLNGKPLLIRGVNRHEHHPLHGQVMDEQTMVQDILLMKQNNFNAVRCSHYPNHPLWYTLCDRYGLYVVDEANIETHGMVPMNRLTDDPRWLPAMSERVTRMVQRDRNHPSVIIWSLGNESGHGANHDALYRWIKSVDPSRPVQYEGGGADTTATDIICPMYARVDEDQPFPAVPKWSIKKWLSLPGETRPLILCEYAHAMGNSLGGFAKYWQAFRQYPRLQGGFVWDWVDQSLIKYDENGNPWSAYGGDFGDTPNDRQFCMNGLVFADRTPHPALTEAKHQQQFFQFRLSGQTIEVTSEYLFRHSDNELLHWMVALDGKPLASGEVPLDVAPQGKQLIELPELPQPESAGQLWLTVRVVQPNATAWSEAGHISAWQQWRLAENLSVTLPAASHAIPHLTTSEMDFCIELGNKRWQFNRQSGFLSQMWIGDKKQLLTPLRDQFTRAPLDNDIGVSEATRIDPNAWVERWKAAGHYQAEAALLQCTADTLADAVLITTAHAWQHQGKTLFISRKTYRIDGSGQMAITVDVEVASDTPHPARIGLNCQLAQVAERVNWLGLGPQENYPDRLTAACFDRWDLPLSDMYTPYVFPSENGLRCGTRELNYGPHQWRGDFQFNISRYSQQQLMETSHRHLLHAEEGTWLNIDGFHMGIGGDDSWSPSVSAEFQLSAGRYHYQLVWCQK
Chain of Paired box protein Pax-8 (Q06710 whole entry): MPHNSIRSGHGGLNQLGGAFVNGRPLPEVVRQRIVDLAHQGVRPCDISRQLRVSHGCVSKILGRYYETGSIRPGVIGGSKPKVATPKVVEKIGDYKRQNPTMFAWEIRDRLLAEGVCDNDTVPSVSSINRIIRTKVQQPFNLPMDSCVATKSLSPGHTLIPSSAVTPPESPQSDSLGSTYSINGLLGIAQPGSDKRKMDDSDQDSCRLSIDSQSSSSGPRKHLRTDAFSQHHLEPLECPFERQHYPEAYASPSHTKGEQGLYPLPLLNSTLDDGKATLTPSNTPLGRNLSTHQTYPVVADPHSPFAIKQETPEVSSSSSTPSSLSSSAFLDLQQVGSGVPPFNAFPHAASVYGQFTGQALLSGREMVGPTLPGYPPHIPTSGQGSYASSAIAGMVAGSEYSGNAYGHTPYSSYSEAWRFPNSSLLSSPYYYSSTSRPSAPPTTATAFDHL

OC[C@H]1Nc2ccc(C#Cc3cccnc3)cc2[C@H]2NCC[C@H]21
AC50 [1]: 7.59 µM (active)
AC50 [2]: 1.08 µM (active)
AC50 [3]: 8.84 µM (active)
AC50 [4]: 11.2 µM (active)

CC[n+]1ccccc1/C=C1\Sc2ccc(C)cc2N1C
EC50 [5]: > 60 µM (not active)
EC50 (cells): 22 nM (active)
EC50 [6]: < 100 nM (active)

Cc1cc(=O)[nH]c(SCC(=O)NCC2CCCO2)n1 (centres undefined)
IC50 (Prothrombin): > 50 µM (not active)

Clc1ccc(-c2cc(-c3ccccn3)on2)c(Cl)c1
AC50 [7]: 7.08 µM (active)
AC50 [8]: 3.73 µM (active)
AC50 [9]: > 52 µM (inactive)
AC50 [10]: > 52 µM (inactive)
IC50 (Protein skinhead-1): > 100 µM (inactive)

Cc1ccc(C)c(OCCC(=O)Nc2cccc(S(=O)(=O)NC3=NCCCCC3)c2)c1
IC50 [11]: 46.4 µM (inactive)
IC50 [12]: 98.3 µM (inactive)
IC50 [13]: 83.3 µM (inactive)

CCOC(=O)CSc1nnc(CNC(=O)c2ccc(S(=O)(=O)N3CCCC3)cc2)n1C
IC50 (Prothrombin): > 50 µM (not active)

COCC#Cc1ccc(CC[C@H]2O[C@H]3CC[C@H](CO)O[C@H]3C[C@@H]2n2cc(C3CC3)nn2)cc1
AC50 [1]: 2.15 µM (active)
AC50 [2]: 2.33 µM (active)
AC50 [3]: 3.37 µM (active)
AC50 [4]: 3.76 µM (active)

Cc1ccc(/C=C/C(=O)N2CCC(Cc3ccccc3)CC2)cc1
IC50 (Beta-galactosidase): > 80 µM (inactive)

Cc1ccc(S(=O)(=O)N2CCN(Cc3nc(O)c4c(C)c(C)sc4n3)CC2)cc1
IC50 [14]: > 100 µM (active)

C[C@@H]1CCCCO[C@@H](CN(C)C(=O)Nc2ccc(C(F)(F)F)cc2)[C@H](C)CN([C@H](C)CO)C(=O)c2cc(NS(=O)(=O)c3ccc(F)cc3)ccc2O1
AC50 (Paired box protein Pax-8): 5.62 µM (active)
AC50 [15]: 23.5 µM (active)
AC50 [16]: > 70 µM (inactive)

O=C(CSc1n[nH]c2c3cc(F)ccc3nc-2n1)NCc1ccc(F)cc1
IC50 [11]: 1.42 µM (active)
IC50 [12]: 119 µM (inactive)
IC50 [13]: 83.3 µM (inactive)

CN1C(=O)CC(N2CCN(C(=O)c3ccccc3)CC2)C1=O (centres undefined)
IC50 [14]: > 100 µM (active)

C=CCn1c(COc2ccccc2F)nnc1SCC(=O)NC(=O)NCc1ccco1
IC50 [17]: 12.2 µM (active)
IC50 (Estrogen receptor beta [18]): > 50 µM (not active)
IC50 (Estrogen receptor beta [19]): 3.27 µM (active)

COc1cc2c(cc1OC)CN(c1ccc([N+](=O)[O-])c(C(F)(F)F)c1)CC2
AC50 [8]: 29.6 µM (active)
AC50 [9]: > 52 µM (inactive)
AC50 [10]: > 52 µM (inactive)
EC50 [20]: 43.1 µM (active)

Cc1ccc(C)n1-c1ccc(-c2nnco2)cc1
IC50 (Prothrombin): > 50 µM (not active)

CC1CCc2c(sc(NC(=O)c3ccc(Cn4cc([N+](=O)[O-])cn4)o3)c2C#N)C1 (centres undefined)
IC50 (Estrogen receptor): 8.35 µM (active)
IC50 [17]: 4.29 µM (active)
IC50 (Estrogen receptor beta [18]): 11.1 µM (not active)
IC50 (Estrogen receptor beta [19]): 2.32 µM (active)

COc1cc(OC)cc(C(=O)N2CCN(C(=O)COc3ccc4ccccc4c3)CC2)c1
IC50 (Beta-galactosidase): > 80 µM (inactive)

CCC(C)N1CCN(C(=O)COc2ccc3ccccc3c2)CC1 (centres undefined)
IC50 (Beta-galactosidase): > 80 µM (inactive)
